Tests used:
Experiment in all cases: relative viability (nuclei count vs DMSO), 5 days (fraction); higher = more cells survive
Carboplatin + Dasatinib = compound: C1CC(C1)(C(=O)O)C(=O)O.[NH2-].[NH2-].[Pt+2] [Carboplatin] + Cc1nc(Nc2ncc(C(=O)Nc3c(C)cccc3Cl)s2)cc(N2CCN(CCO)CC2)n1 [Dasatinib] (partner 0.075 µM)
Outline: (§1)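 After 5 days of treatment, lung cancer cells in 1536-well plates were fixed and stained in a single step (final 0.05% Triton X-100, 1% formaldehyde, 1 ug/ml Hoechst) and their nuclei counted on 4× images. Treatment had been applied by pin tool the day after seeding as one drug alone or as a fixed anchor-drug dose with five library-drug doses (not always all listed) in √10 steps. Relative viability is the nuclei count of treated wells divided by that of vehicle wells, and values are medians of duplicate plates.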

GSK126 + Navitoclax = compound: CC[C@H](C)N1C=C(C2=C(C=C(C=C21)C3=CN=C(C=C3)N4CCNCC4)C(=O)NCC5=C(C=C(NC5=O)C)C)C [GSK126] + CC1(C)CCC(c2ccc(Cl)cc2)=C(CN2CCN(c3ccc(C(=O)NS(=O)(=O)c4ccc(N[C@H](CCN5CCOCC5)CSc5ccccc5)c(S(=O)(=O)C(F)(F)F)c4)cc3)CC2)C1 [Navitoclax] (partner 0.5 µM)
Outline: as §1

GSK126 + Pemetrexed = compound: CC[C@H](C)N1C=C(C2=C(C=C(C=C21)C3=CN=C(C=C3)N4CCNCC4)C(=O)NCC5=C(C=C(NC5=O)C)C)C [GSK126] + Nc1nc2[nH]cc(CCc3ccc(C(=O)N[C@@H](CCC(=O)O)C(=O)O)cc3)c2c(=O)[nH]1 [Pemetrexed] (partner 0.2 µM)
Outline: as §1

GSK126 + Palbociclib = compound: CC[C@H](C)N1C=C(C2=C(C=C(C=C21)C3=CN=C(C=C3)N4CCNCC4)C(=O)NCC5=C(C=C(NC5=O)C)C)C [GSK126] + CC(=O)c1c(C)c2cnc(Nc3ccc(N4CCNCC4)cn3)nc2n(C2CCCC2)c1=O [Palbociclib] (partner 0.5 µM)
Outline: as §1

Cell Line | relative viability (Carboplatin + Dasatinib; first compound 0.08 µM) | relative viability (Carboplatin + Dasatinib; first compound 0.253 µM) | relative viability (Carboplatin + Dasatinib; first compound 0.8 µM) | relative viability (Carboplatin + Dasatinib; first compound 2.53 µM) | relative viability (Carboplatin + Dasatinib; first compound 8 µM) | relative viability (GSK126 + Navitoclax; first compound 0.08 µM) | relative viability (GSK126 + Navitoclax; first compound 0.253 µM) | relative viability (GSK126 + Navitoclax; first compound 0.8 µM) | relative viability (GSK126 + Navitoclax; first compound 2.53 µM) | relative viability (GSK126 + Navitoclax; first compound 8 µM) | relative viability (GSK126 + Pemetrexed; first compound 0.08 µM) | relative viability (GSK126 + Pemetrexed; first compound 0.253 µM) | relative viability (GSK126 + Pemetrexed; first compound 0.8 µM) | relative viability (GSK126 + Pemetrexed; first compound 2.53 µM) | relative viability (GSK126 + Pemetrexed; first compound 8 µM) | relative viability (GSK126 + Palbociclib; first compound 0.08 µM) | relative viability (GSK126 + Palbociclib; first compound 0.253 µM) | relative viability (GSK126 + Palbociclib; first compound 0.8 µM) | relative viability (GSK126 + Palbociclib; first compound 2.53 µM) | relative viability (GSK126 + Palbociclib; first compound 8 µM)
LOU-NH91 | 0.674 | 0.578 | 0.542 | 0.568 | 0.538 | 0.732 | 0.656 | 0.68 | 0.751 | 0.706 | 0.399 | 0.35 | 0.376 | 0.362 | 0.423 | 0.449 | 0.541 | 0.523 | 0.536 | 0.57
LU99A | 0.562 | 0.559 | 0.511 | 0.39 | 0.384 | 0.926 | 0.812 | 0.705 | 0.777 | 0.766 | 0.181 | 0.165 | 0.185 | 0.179 | 0.155 | 0.444 | 0.439 | 0.379 | 0.39 | 0.451
LXF-289 | 0.327 | 0.24 | 0.223 | 0.264 | 0.232 | 0.979 | 0.912 | 0.935 | 0.986 | 0.981 | 0.894 | 0.945 | 0.933 | 0.908 | 0.884 | 0.586 | 0.625 | 0.588 | 0.602 | 0.629
NCI-H23 | 0.918 | 0.854 | 0.673 | 0.534 | 0.663 | 0.847 | 0.837 | 0.895 | 0.996 | 1.03 | 0.773 | 0.735 | 0.687 | 0.706 | 0.631 | 0.6 | 0.583 | 0.565 | 0.628 | 0.515
NCI-H322M | 0.281 | 0.243 | 0.255 | 0.256 | 0.257 | 1.19 | 1.35 | 1.11 | 1.22 | 1.17 | 0.543 | 0.621 | 0.615 | 0.648 | 0.641 | 0.568 | 0.488 | 0.505 | 0.485 | 0.45
NCI-H441 | 0.665 | 0.798 | 0.546 | 0.627 | 0.47 | 0.948 | 0.429 | 0.578 | 0.878 | 0.678 | 0.289 | 0.281 | 0.272 | 0.248 | 0.267 | 0.193 | 0.232 | 0.21 | 0.243 | 0.257
NCI-H460 | 0.551 | 0.429 | 0.464 | 0.427 | 0.183 | 1.14 | 1.17 | 1.17 | 1.1 | 1.18 | 0.0714 | 0.0516 | 0.0631 | 0.0635 | 0.0781 | 0.171 | 0.199 | 0.154 | 0.148 | 0.173
NCI-H520 | 0.216 | 0.239 | 0.185 | 0.263 | 0.193 | 1.24 | 1.02 | 1.03 | 1.14 | 1.34 | 0.781 | 0.792 | 0.743 | 0.705 | 0.733 | 0.21 | 0.233 | 0.221 | 0.209 | 0.268
NCI-H647 | 0.196 | 0.18 | 0.216 | 0.164 | 0.161 | 1.14 | 1.05 | 1.07 | 1.11 | 1.15 | 0.236 | 0.197 | 0.188 | 0.163 | 0.19 | 0.482 | 0.366 | 0.363 | 0.382 | 0.5
NCI-H838 | 0.306 | 0.3 | 0.331 | 0.319 | 0.275 | 1.15 | 1.18 | 1.09 | 1.1 | 0.978 | 0.245 | 0.231 | 0.229 | 0.239 | 0.24 | 0.264 | 0.223 | 0.202 | 0.212 | 0.234
NCI-H1355 | 0.729 | 0.759 | 0.776 | 0.667 | 0.656 | 0.985 | 1.07 | 0.911 | 1.01 | 1.02 | 1.15 | 1.12 | 0.996 | 1.03 | 1.06 | 0.446 | 0.365 | 0.417 | 0.405 | 0.413
NCI-H1395 | 0.423 | 0.367 | 0.392 | 0.42 | 0.516 | 1.59 | 1.04 | 1.09 | 1.33 | 0.95 | 0.942 | 0.773 | 0.867 | 0.988 | 0.759 | 0.656 | 0.568 | 0.597 | 0.681 | 0.505
NCI-H1437 | 0.619 | 0.411 | 0.428 | 0.411 | 0.325 | 1.14 | 1.11 | 1.04 | 1.03 | 1.03 | 0.298 | 0.325 | 0.306 | 0.305 | 0.353 | 0.313 | 0.278 | 0.293 | 0.279 | 0.316
NCI-H1650 | 0.31 | 0.357 | 0.321 | 0.273 | 0.299 | 1.33 | 1.19 | 1.1 | 1.12 | 1.06 | 0.393 | 0.437 | 0.39 | 0.302 | 0.344 | 0.393 | 0.359 | 0.37 | 0.377 | 0.32
